# From PMC8237303 (Heliyon, 2021)
# Where a name gives a salt, the structure may show the parent alone. Bridge positions count the residues as written; N and C are the ends. Ends that are not written are not given here.
# Key:
# [1] = test system: Glutamate receptor (AMPA); assay: D,L-alpha-[3H]-Amino-3-Hydroxy-Methylisoxazole-4-Propionic Acid; type: binding; conditions: Rat cerebral cortex
# [2] = test system: GABA A receptor (Picrotoxin site); assay: [3H]-EBOB binding assay; set-up: species or system Rat
# K Channel KATP = assay: [3H]-Glybenclamide binding assay; conditions: Rat whole brain
# [3] = test system: Bombesin receptor (Non-selective); assay: [125I]-Bombesin binding assay; conditions: Rat whole brain
# [4] = test system: Ca channel (Type L, Benzothiazepine); assay: [3H]-; type: binding; conditions: Rat cerebral cortex
# [5] = biological target: Opiate δ receptor (Human) (Homo sapiens, UniProt P41143); assay: [3H]-Naltrindole binding assay; conditions: Human recombinant
# Chain of Opiate δ receptor (Human) (P41143 whole entry): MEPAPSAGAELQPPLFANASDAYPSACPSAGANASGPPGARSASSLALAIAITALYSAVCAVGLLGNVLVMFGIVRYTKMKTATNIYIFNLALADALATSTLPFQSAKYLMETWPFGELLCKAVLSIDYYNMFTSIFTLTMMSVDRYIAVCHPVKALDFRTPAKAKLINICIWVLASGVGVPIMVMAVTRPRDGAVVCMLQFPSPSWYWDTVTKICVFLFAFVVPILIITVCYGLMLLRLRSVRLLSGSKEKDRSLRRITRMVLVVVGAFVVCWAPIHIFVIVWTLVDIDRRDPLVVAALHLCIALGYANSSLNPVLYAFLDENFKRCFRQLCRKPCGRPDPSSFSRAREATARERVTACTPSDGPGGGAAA
# PAF receptor = assay: 1-O-Hexadecyl-[3H]-Platelet Activating Factor; type: binding; conditions: Rabbit platelet
# [6] = biological target: Neurokinin NK3 receptor (Human) (Homo sapiens, UniProt P29371); assay: [125I]-Neurokinin B; type: binding; conditions: Human recombinant
# [7] = test system: Nicotinic receptor (Human); assay: [3H]-; type: binding; conditions: Human receptor (Non-recombinant)
# [8] = test system: Glutamate (NMDA polyamine site); assay: [3H]-Ifenprodil binding assay; conditions: Rat cerebral cortex
# [9] = test system: Glycine receptor (Strychnine sensitive); type: binding; conditions: Rat spinal cord
# [10] = test system: Glutamate receptor (NMDA phencycidine site); assay: [3H]-; type: binding; conditions: Rat cerebral cortex
# [11] = test system: Imidazoline receptor (Central); assay: [3H]RX 781094; type: binding; conditions: Rat cerebral cortex
# CRF1 receptor (Human) = biological target: T1, CRF1 receptor (Human) (Homo sapiens, UniProt P34998); assay: [125I]-Corticotropin Releasing Factor; type: binding; conditions: Human recombinant
# T1 sequence (P34998 24-415): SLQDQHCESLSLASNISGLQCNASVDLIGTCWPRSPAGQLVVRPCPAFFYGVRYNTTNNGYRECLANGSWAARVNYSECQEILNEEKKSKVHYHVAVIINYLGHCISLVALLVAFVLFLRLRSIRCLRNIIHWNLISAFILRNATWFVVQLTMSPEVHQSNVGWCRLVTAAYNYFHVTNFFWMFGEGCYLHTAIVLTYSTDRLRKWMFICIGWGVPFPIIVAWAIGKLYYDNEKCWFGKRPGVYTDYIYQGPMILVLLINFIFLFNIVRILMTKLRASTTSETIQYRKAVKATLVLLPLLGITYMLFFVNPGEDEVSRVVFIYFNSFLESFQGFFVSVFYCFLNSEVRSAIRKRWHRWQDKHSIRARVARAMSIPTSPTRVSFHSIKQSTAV
# α1A-Adrenergic receptor = α1A-Adrenergic receptor (Rattus norvegicus, UniProt P43140); assay: [3H]-Prazosin binding assay; conditions: Rat submandibular gland
# Chain of α1A-Adrenergic receptor (P43140 whole entry): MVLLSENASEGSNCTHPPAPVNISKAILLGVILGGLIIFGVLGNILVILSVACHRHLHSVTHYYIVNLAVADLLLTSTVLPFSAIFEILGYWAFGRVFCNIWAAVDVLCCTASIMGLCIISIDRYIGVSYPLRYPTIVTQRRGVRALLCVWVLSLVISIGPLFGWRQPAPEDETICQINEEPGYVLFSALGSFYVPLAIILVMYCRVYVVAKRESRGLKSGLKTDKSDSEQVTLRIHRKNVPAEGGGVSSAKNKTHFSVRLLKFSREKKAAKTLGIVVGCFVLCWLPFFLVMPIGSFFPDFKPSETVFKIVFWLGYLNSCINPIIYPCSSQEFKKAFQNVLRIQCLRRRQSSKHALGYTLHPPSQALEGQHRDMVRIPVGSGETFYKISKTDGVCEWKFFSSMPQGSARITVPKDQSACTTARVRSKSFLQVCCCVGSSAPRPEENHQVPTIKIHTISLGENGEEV
# α1B-Adrenergic receptor = α1B-Adrenergic receptor (Rattus norvegicus, UniProt P15823); assay: [3H]-Prazosin binding assay; conditions: Rat liver
# Chain of α1B-Adrenergic receptor (P15823 whole entry): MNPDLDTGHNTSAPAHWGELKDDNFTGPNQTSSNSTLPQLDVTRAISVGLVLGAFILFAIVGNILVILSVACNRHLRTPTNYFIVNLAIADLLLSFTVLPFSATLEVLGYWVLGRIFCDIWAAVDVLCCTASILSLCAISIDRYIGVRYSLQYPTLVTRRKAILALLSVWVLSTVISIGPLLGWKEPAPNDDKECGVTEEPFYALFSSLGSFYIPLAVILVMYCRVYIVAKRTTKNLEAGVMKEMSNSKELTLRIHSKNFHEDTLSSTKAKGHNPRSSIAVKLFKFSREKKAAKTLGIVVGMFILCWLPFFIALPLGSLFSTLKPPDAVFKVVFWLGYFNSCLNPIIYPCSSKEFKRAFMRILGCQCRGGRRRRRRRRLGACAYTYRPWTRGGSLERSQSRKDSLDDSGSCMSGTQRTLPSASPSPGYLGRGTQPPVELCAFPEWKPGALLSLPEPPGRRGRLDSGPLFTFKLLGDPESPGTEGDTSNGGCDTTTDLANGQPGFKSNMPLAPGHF
# [12] = test system: Glutamate receptor (NMDA agonist site); assay: [3H]-CGP-39653 binding assay; conditions: Rat cerebral cortex
# [13] = biological target: Dopamine transporter (Human) (Homo sapiens, UniProt Q01959); assay: [3H]-WIN35,428 binding assay; conditions: Human recombinant
# [14] = biological target: Adenosine A1 receptor (Human) (Homo sapiens, UniProt P30542); assay: [3H]8-Cyclopentyl-1,3-dipropylxanthine; type: binding; conditions: Human recombinant
# Chain of Adenosine A1 receptor (Human) (P30542 whole entry): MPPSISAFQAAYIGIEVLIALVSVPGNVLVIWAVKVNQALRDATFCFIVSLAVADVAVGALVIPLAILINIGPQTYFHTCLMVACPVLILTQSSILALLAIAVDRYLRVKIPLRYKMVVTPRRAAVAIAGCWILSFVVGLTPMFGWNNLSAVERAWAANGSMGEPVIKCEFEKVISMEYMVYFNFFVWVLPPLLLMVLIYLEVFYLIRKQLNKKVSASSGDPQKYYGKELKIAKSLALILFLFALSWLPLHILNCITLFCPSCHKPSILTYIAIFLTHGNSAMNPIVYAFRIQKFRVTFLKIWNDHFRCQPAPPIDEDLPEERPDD
# IP3 receptor = assay: D-[3H]-Inositol-1,4,5-Triphosphate binding assay; conditions: Rat cerebellum
# [15] = biological target: Adenosine A3 receptor (Human) (Homo sapiens, UniProt P0DMS8); assay: [125I]-AB-MECA binding assay; conditions: Human recombinant
# Chain of Adenosine A3 receptor (Human) (P0DMS8 whole entry): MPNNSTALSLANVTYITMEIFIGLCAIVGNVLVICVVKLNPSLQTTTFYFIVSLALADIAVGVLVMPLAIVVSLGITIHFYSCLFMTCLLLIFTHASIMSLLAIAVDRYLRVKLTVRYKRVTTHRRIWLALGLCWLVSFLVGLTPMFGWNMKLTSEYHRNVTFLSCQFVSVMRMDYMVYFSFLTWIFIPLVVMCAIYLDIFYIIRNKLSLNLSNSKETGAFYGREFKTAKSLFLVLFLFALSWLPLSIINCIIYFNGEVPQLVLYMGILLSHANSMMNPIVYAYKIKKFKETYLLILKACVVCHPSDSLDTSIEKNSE
# [16] = biological target: Serotonin transporter (Human) (Homo sapiens, UniProt P31645); assay: [3H]-Imipramine hydrochloride binding assay; conditions: Human recombinant
# Chain of Serotonin transporter (Human) (P31645 whole entry): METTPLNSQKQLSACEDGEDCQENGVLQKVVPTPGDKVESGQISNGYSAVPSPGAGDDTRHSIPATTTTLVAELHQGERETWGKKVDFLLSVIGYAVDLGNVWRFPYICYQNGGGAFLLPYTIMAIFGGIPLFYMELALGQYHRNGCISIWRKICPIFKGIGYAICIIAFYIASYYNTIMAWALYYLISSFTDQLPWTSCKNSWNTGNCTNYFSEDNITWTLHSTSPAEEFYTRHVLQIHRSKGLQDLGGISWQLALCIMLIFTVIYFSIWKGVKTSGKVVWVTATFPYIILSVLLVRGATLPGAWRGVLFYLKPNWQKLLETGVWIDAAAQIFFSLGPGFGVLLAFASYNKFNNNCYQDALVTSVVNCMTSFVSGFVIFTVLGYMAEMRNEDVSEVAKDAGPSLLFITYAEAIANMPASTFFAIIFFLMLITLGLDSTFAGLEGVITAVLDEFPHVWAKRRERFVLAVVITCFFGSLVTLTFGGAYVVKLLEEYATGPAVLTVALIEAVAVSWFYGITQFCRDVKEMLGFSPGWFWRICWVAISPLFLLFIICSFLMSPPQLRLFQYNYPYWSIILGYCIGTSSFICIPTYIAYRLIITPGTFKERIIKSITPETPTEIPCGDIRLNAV
# [17] = test system: GABA A receptor (Agonist site); assay: [3H]-Muscimol binding assay; conditions: Rat cerebellum
# [18] = biological target: Neurokinin NK1 receptor (Human) (Homo sapiens, UniProt P25103); assay: [125I]-Substance P binding assay; conditions: Human recombinant
# Chain of Neurokinin NK1 receptor (Human) (P25103 whole entry): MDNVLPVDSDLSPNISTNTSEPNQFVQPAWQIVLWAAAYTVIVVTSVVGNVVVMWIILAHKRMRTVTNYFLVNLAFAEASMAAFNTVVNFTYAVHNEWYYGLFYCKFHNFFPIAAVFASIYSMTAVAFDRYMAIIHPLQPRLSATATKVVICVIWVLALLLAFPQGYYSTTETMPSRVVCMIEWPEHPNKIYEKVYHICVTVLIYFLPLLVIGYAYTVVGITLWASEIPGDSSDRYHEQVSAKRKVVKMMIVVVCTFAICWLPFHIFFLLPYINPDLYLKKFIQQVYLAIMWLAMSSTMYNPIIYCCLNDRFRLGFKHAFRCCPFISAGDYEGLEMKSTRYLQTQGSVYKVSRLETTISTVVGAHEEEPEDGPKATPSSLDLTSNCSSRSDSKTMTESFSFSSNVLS
# [19] = biological target: Glucocorticoid receptor (Human) (Homo sapiens, UniProt P04150); assay: [3H]-Dexamethasone binding assay; conditions: Human recombinant
# Chain of Glucocorticoid receptor (Human) (P04150 whole entry): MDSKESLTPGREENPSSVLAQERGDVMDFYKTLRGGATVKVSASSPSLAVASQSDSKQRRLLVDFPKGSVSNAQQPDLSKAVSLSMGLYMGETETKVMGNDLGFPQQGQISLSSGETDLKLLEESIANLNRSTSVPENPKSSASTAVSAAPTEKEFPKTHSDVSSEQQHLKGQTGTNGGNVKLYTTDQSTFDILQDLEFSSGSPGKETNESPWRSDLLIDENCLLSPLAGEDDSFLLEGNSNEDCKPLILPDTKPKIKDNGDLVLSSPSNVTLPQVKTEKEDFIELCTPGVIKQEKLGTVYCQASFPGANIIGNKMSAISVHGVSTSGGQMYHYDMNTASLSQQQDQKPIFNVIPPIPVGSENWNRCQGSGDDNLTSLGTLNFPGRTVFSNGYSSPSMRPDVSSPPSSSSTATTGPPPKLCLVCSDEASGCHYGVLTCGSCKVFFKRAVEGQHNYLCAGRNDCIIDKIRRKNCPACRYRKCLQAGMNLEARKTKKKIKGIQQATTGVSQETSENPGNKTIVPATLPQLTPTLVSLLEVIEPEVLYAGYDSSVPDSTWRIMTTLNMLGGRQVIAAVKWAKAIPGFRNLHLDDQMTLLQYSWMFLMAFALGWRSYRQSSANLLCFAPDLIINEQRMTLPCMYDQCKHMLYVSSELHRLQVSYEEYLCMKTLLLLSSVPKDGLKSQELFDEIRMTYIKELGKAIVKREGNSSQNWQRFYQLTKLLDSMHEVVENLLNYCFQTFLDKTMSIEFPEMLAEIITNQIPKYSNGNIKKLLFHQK
# Leukotriene D4 receptor = Leukotriene D4 receptor (Cavia porcellus, UniProt Q2NNR5); assay: [3H]-Leukotriene D4 binding assay; conditions: Guinea pig lung
# Chain of Leukotriene D4 receptor (Q2NNR5 whole entry): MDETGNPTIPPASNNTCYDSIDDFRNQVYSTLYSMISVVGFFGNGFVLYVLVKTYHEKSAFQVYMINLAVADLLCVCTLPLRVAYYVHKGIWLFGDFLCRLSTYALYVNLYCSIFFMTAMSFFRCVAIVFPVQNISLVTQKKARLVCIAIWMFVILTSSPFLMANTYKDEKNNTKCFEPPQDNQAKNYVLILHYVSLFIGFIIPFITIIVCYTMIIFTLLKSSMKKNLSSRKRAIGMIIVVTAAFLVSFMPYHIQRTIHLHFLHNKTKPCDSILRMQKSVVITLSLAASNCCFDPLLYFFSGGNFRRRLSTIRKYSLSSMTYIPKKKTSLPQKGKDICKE
# [20] = biological target: Glutamate receptor (NMDAglycine site) (Rattus norvegicus, UniProt P35439); assay: [3H]-MDL105,519 binding assay; conditions: Rat cerebral cortex
# Chain of Glutamate receptor (NMDAglycine site) (P35439 394-800 limits assumed): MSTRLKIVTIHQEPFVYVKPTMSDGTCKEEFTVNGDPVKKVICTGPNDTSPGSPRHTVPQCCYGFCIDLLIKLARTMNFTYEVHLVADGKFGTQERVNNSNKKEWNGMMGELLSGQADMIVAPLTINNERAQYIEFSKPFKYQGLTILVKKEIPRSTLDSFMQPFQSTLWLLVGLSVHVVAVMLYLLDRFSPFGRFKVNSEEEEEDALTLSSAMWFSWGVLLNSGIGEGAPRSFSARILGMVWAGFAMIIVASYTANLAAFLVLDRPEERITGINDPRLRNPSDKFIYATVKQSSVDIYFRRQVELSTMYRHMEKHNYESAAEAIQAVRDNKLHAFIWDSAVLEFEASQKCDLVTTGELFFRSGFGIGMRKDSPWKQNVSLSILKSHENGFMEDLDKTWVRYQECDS
# [21] = test system: Glutamate receptor (Kainate); assay: [3H]-Kainic Acid binding assay; conditions: Rat whole brain
# [22] = test system: Ca channel (Type L, Phenylalkylamine); assay: [3H]-; type: binding; conditions: Rat cerebral cortex
# Leukotriene B4 receptor = assay: [3H]-Leukotriene B4 binding assay; conditions: Guinea pig lung
# K Channel SkCa = assay: [125I]-Apamin binding assay; conditions: Rat whole brain
# [23] = test system: GABA A receptor (Benzodiazepine site); assay: [3H]-Flunitrazepam binding assay; conditions: Rat whole brain
# [24] = test system: Ca Channel (Type L, Dihydropyridine); assay: [3H]-PN200-110 binding assay; conditions: Rat cerebral cortex
# [25] = biological target: Prostanoid EP2 receptor (Human) (Homo sapiens, UniProt P43116); assay: [3H]-Prostaglandin E2 binding assay; conditions: Human recombinant
# Chain of Prostanoid EP2 receptor (Human) (P43116 whole entry): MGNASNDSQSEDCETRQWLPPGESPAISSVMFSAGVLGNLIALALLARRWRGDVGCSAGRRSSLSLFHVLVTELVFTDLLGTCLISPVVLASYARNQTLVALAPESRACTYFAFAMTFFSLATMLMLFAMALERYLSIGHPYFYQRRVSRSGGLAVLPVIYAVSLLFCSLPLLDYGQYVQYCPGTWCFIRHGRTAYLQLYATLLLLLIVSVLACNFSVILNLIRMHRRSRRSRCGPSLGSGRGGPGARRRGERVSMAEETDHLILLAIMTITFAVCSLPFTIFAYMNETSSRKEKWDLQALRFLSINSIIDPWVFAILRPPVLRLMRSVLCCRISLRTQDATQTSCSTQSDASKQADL
# Monoamine transporter = assay: [3H]-α-Dihydrotetrabenazine binding assay; conditions: Rabbit platelet
# [26] = biological target: Dopamine D2 receptor short isoform (Human) (Homo sapiens, UniProt P14416); assay: [3H]-Spiperone binding assay; conditions: Human recombinant
compound,measurement,setting,value
Cc1o[nH]c(=O)c1C[C@H](N)C(=O)O [(S)-AMPA],Inhibition by a positive substance (%),[1],100%
Picrotoxin,Inhibition by a positive control substance (%),[2]; Rat cerebral cortex,94.33%
same,IC50,"[2]; read-out: IC50 for inhibition of the [3H]-EBOB binding, rat cerebral cortex preparation, 7 concentrations, duplicate",0.602 µM
same,Ki,"[2]; read-out: Ki (mol/L), inhibition of the binding of [3H]-EBOB, GABAA (Picrotoxin site), Ki=IC50/(1+[L/Kd])",0.313 µM
COc1ccc(Cl)cc1C(=O)NCCc1ccc(S(=O)(=O)NC(=O)NC2CCCCC2)cc1 [Glibenclamide],Inhibition by a positive substance (%),K Channel KATP,100%
Bombesin acetate hydrate,Inhibition by a positive control substance (%),[3],98.81%
COc1ccc([C@@H]2Sc3ccccc3N(CCN(C)C)C(=O)[C@@H]2OC(C)=O)cc1.Cl (relative stereo) [(+)-cis-Diltiazem hydrochloride],Inhibition by a positive substance (%),[4],96.98%
CS(=O)(=O)O.Oc1ccc2c3c1O[C@H]1c4oc5ccccc5c4C[C@@]4(O)[C@@H](C2)N(CC2CC2)CC[C@]314 [Naltriben methanesulfonate hydrate],Inhibition by a positive substance (%),[5],100%
CCCCCCCCCCCCCCCCOC[C@@H](O)COP(=O)([O-])OCC[N+](C)(C)C [1-O-Palmityl-sn-glycero-3-phosphocholine],Inhibition by a positive substance (%),PAF receptor,100%
"Succinyl-[Asp 6, N–Me-Phe 8]-Substance P Fragment 6–11",Inhibition by a positive substance (%),[6],100%
Cl.Cl.Clc1ccc(C2CC3CCC2N3)cn1.O (racemic) [(±)-Epibatidine dihydrochloride hydrate],Inhibition by a positive substance (%),[7],100%
CC(C(O)c1ccc(O)cc1)N1CCC(Cc2ccccc2)CC1.CC(C(O)c1ccc(O)cc1)N1CCC(Cc2ccccc2)CC1.O=C(O)C(O)C(O)C(=O)O (stereo not drawn) [Ifenprodil tartrate salt],Inhibition by a positive substance (%),[8],99.68%
O=C1C[C@@H]2OCC=C3CN4CC[C@]56c7ccccc7N1[C@H]5[C@H]2[C@H]3C[C@H]46 [Strychnine],Inhibition by a positive substance (%),[9],98.79%
(+)-MK-801 hydrogen maleate,Inhibition by a positive substance (%),[10],100%
CC(=O)O.N=C(N)N/N=C/c1c(Cl)cccc1Cl [Guanabenz acetate salt],Inhibition by a positive substance (%),[11],100%
"Urocortin human (DNPSLSIDLTFHLLRTLLELARTQSQRERAEQNRIIFDSV; ends and bridges not checked; UniProt P55089 83-122, looked up)",Inhibition by a positive substance (%),CRF1 receptor (Human),100%
COc1cc2nc(N3CCN(C(=O)c4ccco4)CC3)nc(N)c2cc1OC [Prazosin hydrochloride],Inhibition by a positive substance (%),α1A-Adrenergic receptor,100%
same,Inhibition by a positive substance (%),α1B-Adrenergic receptor,100%
Cl.N[C@@H](CCC(=O)O)C(=O)O [L-Glutamic acid hydrochloride],Inhibition by a positive substance (%),[12],100%
Fc1ccc(C(OCCN2CCN(CCCc3ccccc3)CC2)c2ccc(F)cc2)cc1 [GBR12909 dihydrochloride],Inhibition by a positive control substance (%),[13],99.41%
"CCCn1c(=O)c2[nH]c(C3CCCC3)nc2n(CCC)c1=O [8-Cyclopentyl-1,3-dipropylxanthine]",Inhibition by a positive substance (%),[14],96.61%
"O=P([O-])([O-])OC1C(O)C(O)C(OP(=O)([O-])[O-])C(OP(=O)([O-])[O-])C1O.[K+].[K+].[K+].[K+].[K+].[K+] [D-myo-Inositol 1,4,5-trisphosphate potassium salt]",Inhibition by a positive substance (%),IP3 receptor,100%
CNC(=O)[C@H]1O[C@@H](n2cnc3c(NCc4cccc(I)c4)ncnc32)[C@H](O)[C@@H]1O [IB-MECA],Inhibition by a positive substance (%),[15],99.41%
CN(C)CCCN1c2ccccc2CCc2ccccc21 [Imipramine hydrochloride],Inhibition by a positive substance (%),[16],96.87%
NCc1cc(=O)[nH]o1 [Muscimol],Inhibition by a positive substance (%),[17],99.04%
"Ic1ccccc1CN[C@@H]1C2CCN(CC2)[C@@H]1C(c1ccccc1)c1ccccc1 [L-703,606 oxalate salt hydrate]",Inhibition by a positive substance (%),[18],99.87%
"C#Cc1ccc(C23OCC(CCC)(CO2)CO3)cc1 [[^3H]-EBOB, [^3H]-ethynylbicycloorthobenzoate]",Kd,"[2]; read-out: Kd (nmol/L), binding of the radio-labeled ligand, 7 concentrations, GABAA (Picrotoxin site)",4.18 nmol/L
C[C@@H]1C[C@H]2[C@@H]3CCC4=CC(=O)C=C[C@]4(C)[C@@]3(F)[C@@H](O)C[C@]2(C)[C@@]1(O)C(=O)CO [Dexamethasone],Inhibition by a positive substance (%),[19],99.36%
CCCCC/C=C\C\C=C/C=C/C=C/[C@@H](SC[C@H](N)C(=O)NCC(=O)O)[C@@H](O)CCCC(=O)O [Leukotriene D4],Inhibition by a positive substance (%),Leukotriene D4 receptor,96.63%
"O=C(O)/C(=C/c1c(C(=O)O)[nH]c2cc(Cl)cc(Cl)c12)c1ccccc1 [MDL105,519]",Inhibition by a positive substance (%),[20],100%
C=C(C)[C@H]1CN[C@H](C(=O)O)[C@H]1CC(=O)O.O [Kainic acid monohydrate],Inhibition by a positive substance (%),[21],100%
COc1ccc(CCN(C)CCCC(C#N)(c2cc(OC)c(OC)c(OC)c2)C(C)C)cc1OC.Cl (racemic) [(±)-Methoxyverapamil hydrochloride],Inhibition by a positive control substance (%),[22],100%
CCCCC/C=C\C[C@@H](O)/C=C/C=C/C=C\[C@@H](O)CCCC(=O)O [Leukotriene B4],Inhibition by a positive control substance (%),Leukotriene B4 receptor,92.71%
"Apamin (CNCKAPETALCARRCQQH-NH2; disulfide 1-11, 3-15; ends not checked; UniProt P01500 28-45, looked up)",Inhibition by a positive substance (%),K Channel SkCa,100%
CN1C(=O)CN=C(c2ccccc2)c2cc(Cl)ccc21 [Diazepam],Inhibition by a positive substance (%),[23],100%
CCOC(=O)C1=C(C)NC(C)=C(C(=O)OC)C1c1cccc([N+](=O)[O-])c1 (stereo not drawn) [Nitrendipine],Inhibition by a positive substance (%),[24],100%
CCCCC[C@H](O)/C=C/[C@H]1[C@H](O)CC(=O)[C@@H]1C/C=C\CCCC(=O)O [Prostaglandin E2],Inhibition by a positive substance (%),[25],100%
O=C(O)C(O)C(O)C(=O)O.O=C(c1ccc(F)cc1)C1CCN(CCn2c(=O)[nH]c3ccccc3c2=O)CC1 [Ketanserin tartrate salt],Inhibition by a positive substance (%),Monoamine transporter,100%
CC(C)(C)[C@]1(O)CCN2C[C@H]3c4ccccc4CCc4cccc(c43)[C@@H]2C1 [(+)-Butaclamol hydrochloride],Inhibition by a positive substance (%),[26],94.16%
